These results are taken from article PMC4961458 (eLife, 2016).

One experiment addresses T1, PR-A (Homo sapiens, UniProt P06401).
T1 sequence (P06401 1-769 isoform P06401-2): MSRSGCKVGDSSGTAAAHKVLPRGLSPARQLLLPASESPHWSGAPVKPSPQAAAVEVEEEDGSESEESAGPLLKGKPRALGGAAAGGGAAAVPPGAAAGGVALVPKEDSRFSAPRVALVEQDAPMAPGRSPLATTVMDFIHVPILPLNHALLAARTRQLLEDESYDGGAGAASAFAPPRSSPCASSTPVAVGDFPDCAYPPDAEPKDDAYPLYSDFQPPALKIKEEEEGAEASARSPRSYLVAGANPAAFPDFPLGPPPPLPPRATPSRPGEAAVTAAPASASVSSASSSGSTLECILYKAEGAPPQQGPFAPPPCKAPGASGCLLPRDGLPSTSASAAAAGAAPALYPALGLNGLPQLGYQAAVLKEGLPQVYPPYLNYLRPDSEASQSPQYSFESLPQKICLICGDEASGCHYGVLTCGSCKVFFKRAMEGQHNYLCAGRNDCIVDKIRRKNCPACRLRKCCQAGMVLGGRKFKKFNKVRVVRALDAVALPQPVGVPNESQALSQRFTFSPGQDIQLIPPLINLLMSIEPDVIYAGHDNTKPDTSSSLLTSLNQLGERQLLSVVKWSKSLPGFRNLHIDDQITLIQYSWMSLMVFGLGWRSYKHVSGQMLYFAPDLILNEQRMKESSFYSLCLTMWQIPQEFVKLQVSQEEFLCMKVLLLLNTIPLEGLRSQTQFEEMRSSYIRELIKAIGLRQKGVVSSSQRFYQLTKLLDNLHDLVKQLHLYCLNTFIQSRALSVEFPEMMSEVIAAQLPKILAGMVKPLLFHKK
Nature of the experiment: PR-A transcriptional reporter assay, agonist mode (HEPG2 cells). Format: cell-based. More on the design: subcloning full-length PRa into pCMX; expressed in transfected cells; host or cells: HEPG2. The following applies: % of maximal R5020-stimulated activity. The procedure: (§1) Transcriptional assays were performed by seeding 100 μL of cells at a density of 250,000 cells/mL into 96-well cell culture plates in RPMI 1640 supplemented with 5% charcoal-stripped serum and allowed to attach overnight. […] Triplicate transfections were performed using 418 ng reporter vector (2X PRE-Luciferase for PR-A and PR-B, MMTV-Luciferase for MR), 50 ng CMVpRL (normalization vector), 10 ng NHR expression vector (CMX-PR-A, pCDNA-PR-B or 6R-MR), and 0.7 μL lipofectin. […] The final agonist concentration used in the antagonist assays was 1 nM. Following 24 hr incubation, the medium was removed and the cells were lysed in 40 μL of lysis buffer (25 mM Tris Phosphate, 2 mM CDTA, 10% Glycerol, 0.5% Triton X-100, 2 mM DTT). Firefly luciferase activity was measured immediately following the addition of 40 μL luciferase buffer (20 mM tricine, 0.1 mM EDTA, 1.07 mM (MgCO3)4 Mg(OH)2· 5H2O, 2.67 mM MgSO4, 33.3 mM DTT, 270 μM Coenzyme A, 470 μM luciferin, 530 μM ATP).

For another experiment, the target named is T2, GR (Homo sapiens, UniProt P04150).
T2 sequence (P04150 1-777): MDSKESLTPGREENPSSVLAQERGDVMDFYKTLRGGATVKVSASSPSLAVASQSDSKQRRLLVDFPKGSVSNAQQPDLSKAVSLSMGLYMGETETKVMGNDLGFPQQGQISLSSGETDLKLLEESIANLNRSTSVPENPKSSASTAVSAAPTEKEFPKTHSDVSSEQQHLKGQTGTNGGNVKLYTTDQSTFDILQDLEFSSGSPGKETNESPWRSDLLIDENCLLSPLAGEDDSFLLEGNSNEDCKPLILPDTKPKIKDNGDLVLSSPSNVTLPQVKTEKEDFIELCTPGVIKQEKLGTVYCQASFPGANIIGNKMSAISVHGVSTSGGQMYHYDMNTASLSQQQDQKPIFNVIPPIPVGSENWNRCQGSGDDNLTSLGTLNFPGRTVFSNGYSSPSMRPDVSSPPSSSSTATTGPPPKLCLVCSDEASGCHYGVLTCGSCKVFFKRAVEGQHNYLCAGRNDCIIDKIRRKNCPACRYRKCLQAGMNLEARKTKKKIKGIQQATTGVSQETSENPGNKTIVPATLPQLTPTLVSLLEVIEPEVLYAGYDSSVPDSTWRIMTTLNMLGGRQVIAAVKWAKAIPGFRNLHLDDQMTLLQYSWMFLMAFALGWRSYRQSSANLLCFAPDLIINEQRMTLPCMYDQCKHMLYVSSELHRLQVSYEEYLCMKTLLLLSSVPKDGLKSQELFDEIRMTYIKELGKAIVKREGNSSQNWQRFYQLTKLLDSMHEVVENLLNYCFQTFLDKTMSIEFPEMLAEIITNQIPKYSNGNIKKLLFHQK
As to the kind of experiment: GR transcriptional reporter assay, agonist mode (CV1 cells). It is filed as cell-based. The following applies: CV-1; % of maximal dexamethasone-stimulated activity. As for the experimental part:
CV1 cells were maintained in MEM supplemented with 10% FBS. Transcriptional assays were performed by seeding 12 mL of cells at a density of 250,000 cells/mL into a T-75 cell culture flask in MEM supplemented with 5% charcoal-stripped serum and allowed to attach overnight. Cells were transiently transfected using FuGENE 6 (Roche Applied Science). […] Transfected cells were incubated overnight then split into four 96-well tissue culture plates and incubated for 4 hr followed by compound addition. […] The final agonist concentration used in the antagonist assays was 10 nM.

In the next experiment the target is T3, PR-B (Homo sapiens, UniProt P06401).
T3 construct: cloning full-length human PRb into pCDNA; expressed in transfected cells; host or cells: HEPG2
T3 sequence (P06401 1-933): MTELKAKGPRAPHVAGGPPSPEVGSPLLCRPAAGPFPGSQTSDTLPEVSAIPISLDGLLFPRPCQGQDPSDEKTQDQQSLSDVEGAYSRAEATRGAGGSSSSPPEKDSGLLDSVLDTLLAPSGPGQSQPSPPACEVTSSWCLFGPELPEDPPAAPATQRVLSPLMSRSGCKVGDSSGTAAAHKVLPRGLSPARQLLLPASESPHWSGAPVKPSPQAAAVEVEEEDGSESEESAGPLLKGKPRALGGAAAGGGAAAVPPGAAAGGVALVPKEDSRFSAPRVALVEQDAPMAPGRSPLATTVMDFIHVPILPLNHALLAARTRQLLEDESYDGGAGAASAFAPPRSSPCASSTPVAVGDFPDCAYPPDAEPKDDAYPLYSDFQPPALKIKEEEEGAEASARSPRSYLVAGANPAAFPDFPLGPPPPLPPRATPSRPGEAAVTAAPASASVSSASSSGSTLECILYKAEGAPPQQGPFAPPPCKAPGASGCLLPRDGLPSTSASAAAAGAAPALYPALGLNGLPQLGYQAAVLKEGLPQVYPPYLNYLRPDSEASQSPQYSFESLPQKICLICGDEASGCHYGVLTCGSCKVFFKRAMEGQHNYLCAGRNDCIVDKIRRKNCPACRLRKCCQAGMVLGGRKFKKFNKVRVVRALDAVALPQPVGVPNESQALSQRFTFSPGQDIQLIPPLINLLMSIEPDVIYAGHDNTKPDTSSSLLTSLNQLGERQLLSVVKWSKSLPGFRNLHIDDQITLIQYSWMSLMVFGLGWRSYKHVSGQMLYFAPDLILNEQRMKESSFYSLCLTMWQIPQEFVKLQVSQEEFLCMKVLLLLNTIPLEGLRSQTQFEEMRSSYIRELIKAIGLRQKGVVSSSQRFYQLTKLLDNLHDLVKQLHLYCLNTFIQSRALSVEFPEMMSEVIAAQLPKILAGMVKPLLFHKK
As to the kind of experiment: PR-B transcriptional reporter assay, agonist mode (HEPG2 cells). It is filed as cell-based. Conditions: % of maximal R5020-stimulated activity.

The target in the next experiment is T4, MR (Homo sapiens, UniProt P08235).
T4 construct: expressed in transfected cells; host or cells: HEPG2
T4 sequence (P08235 1-984): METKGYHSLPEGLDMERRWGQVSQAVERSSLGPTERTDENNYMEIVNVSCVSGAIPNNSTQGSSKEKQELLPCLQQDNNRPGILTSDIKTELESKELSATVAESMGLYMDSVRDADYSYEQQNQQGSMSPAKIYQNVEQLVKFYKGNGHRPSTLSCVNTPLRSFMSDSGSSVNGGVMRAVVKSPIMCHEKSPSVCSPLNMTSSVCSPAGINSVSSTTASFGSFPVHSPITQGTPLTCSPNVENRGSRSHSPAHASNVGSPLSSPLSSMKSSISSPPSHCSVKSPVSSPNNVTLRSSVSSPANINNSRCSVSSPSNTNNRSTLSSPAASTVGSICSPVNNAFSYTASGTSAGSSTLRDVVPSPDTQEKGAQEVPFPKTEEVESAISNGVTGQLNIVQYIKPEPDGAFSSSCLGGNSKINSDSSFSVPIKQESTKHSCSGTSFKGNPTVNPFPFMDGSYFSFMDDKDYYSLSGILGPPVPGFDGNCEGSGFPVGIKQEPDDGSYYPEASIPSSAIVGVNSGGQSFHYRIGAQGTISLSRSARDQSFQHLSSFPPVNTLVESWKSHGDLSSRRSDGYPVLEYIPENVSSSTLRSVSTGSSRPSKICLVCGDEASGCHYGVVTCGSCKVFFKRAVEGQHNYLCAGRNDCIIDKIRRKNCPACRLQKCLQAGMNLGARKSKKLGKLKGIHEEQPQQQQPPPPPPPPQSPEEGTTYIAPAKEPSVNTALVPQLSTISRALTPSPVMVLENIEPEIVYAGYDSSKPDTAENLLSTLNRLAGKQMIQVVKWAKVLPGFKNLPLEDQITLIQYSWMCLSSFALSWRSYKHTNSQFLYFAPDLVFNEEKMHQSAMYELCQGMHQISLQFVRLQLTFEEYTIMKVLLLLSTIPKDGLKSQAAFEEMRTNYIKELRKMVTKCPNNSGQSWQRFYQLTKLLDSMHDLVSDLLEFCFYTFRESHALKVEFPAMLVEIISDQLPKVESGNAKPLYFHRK
As to the kind of experiment: MR transcriptional reporter assay, agonist mode (HEPG2 cells). The following applies: % of maximal aldosterone-stimulated activity. Format: cell-based. The procedure: as §1

Experiment [1] has as its target T5, human estrogen receptor alpha, GST-tagged ESR1 ligand binding domain, residues S282-V595, wild-type sequence (human, UniProt P03372 282-595).
T5 construct: Detected in the TR-FRET assay through a LanthaScreen Tb-anti-GST antibody; also called ER.WT; ERα LBD
T5 sequence (looked up): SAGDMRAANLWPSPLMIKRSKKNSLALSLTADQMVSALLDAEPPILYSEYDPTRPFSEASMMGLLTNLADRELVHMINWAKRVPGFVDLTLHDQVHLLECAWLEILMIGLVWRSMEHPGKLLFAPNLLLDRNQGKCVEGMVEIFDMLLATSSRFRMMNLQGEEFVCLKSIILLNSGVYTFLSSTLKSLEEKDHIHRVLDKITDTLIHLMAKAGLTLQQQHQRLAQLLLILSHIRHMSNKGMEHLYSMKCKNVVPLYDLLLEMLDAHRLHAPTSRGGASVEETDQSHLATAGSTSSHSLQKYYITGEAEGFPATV
Nature of the experiment: FRET or BRET; cell-free TR-FRET PGC1α recruitment assay; GST-ERα LBD (3x solution 22 nM) detected with Tb-anti-GST antibody (3x mix 15 nM), Fluorescein-PGC1α peptide (3x mix 750 nM), estradiol (3x mix 12 nM; agonist at EC80), TR-FRET Co-regulator Buffer E with 7.5 mM DTT, 2 hr at room temperature; GDC-0810 titrated as small-molecule competitor. The following applies: both partners purified.

No end group written: not given here.

As for `CC#C[C@]1(O)CC[C@H]2[C@@H]3CCC4=CC(=O)CCC4=C3[C@@H](c3ccc(N(C)C)cc3)C[C@@]21C` [RU-486], the Emax at PR-A worked out at 13.3 ± 10.2%; on GR, 8.06 ± 0.66%; at PR-B it was 3.25 ± 1.17%.
Take `CC(=O)S[C@@H]1CC2=CC(=O)CC[C@]2(C)[C@H]2CC[C@@]3(C)[C@@H](CC[C@@]34CCC(=O)O4)[C@H]12` [Spironolactone]: on MR, the Emax is 6.24 ± 0.37%.

B1: Fluorescein-PGC1α peptide (peptide)
peptide: EAEEPSLLKKLLLAPANTQ
modifications: also: fluorescein (position not given here)
notes: source: bought: Life Technologies PV4421
On to B1, for which the binding result in experiment [1] is recorded as “binds”.
